Assay results published in patent US9266904B2, “6-bridged heteroaryldihydropyrimidines for the treatment and prophylaxis of hepatitis B virus infection” (priority 2013, dated 2016).
In brackets after ≈: the same amount, converted by molar mass. Read-outs that look alike come from different tables or passages of the source.

Tests used:
[1] = Human microsomal clearance assay; assay type: in vitro ADME
Outline: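 Liver microsomes (0.5 mg/mL protein) were incubated with 1 μM compound at 37 °C, pH 7.4 phosphate, with an NADPH-regenerating system. Samples at 0-30 min were quenched and measured by LC-MS/MS for parent loss. No-NADPH controls were included.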

[2] = Lyophilisation solubility assay (Lysa); assay type: physicochemical; conditions: thermodynamic from solid
Description: The aqueous solubility is an important physico-chemical property that plays a significant role in various physical and biological processes. It is desirable to have good solubility which enables good permeability and gastric and intestinal absorption, linear dose proportionality, less PK variability, and easy formulation for PD/PK studies. […] Lyophilisation solubility assay (Lysa) is a well adopted high throughput assay to measure compound solubility in industry.
Samples are prepared in duplicate from 10 mM DMSO stock solutions. After evaporation of DMSO with a centrifugal vacuum evaporator, the residue is solved in 0.05 M phosphate buffer (pH 6.5), stirred for one hour and then shook for two hours. After one night, the solution is filtered using a microtiter filter plate and then the filtrate and its 1/10 dilution are then analyzed by direct UV measurement or by HPLC-UV. In addition a four-point calibration curve is prepared from the 10 mM stock solutions and used for the solubility determination of the compounds. The results are in μg/ml. In case the percentage of sample measured in solution after evaporation divided by the calculated maximum of sample amount is bigger than 80% the solubility is reported as bigger than this value.

[3] = test system: HBV replication in HepG2.2.15 cells; experiment: Anti-HBV activity in vitro in HepG2.2.15 cells (extracellular HBV DNA by qPCR); assay type: cell-based; conditions: Hepatitis B virus, HepG2.2.15, Anti-HBV activity in HepG2.2.15 cells; read-out: EC50
Outline: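 EC50 is derived from qPCR of extracellular viral DNA in culture supernatant after 5-day compound exposure. Cells (HepG2.2.15, stably carrying the HBV genome) were plated and incubated overnight at 37 °C before half-log dilution series were added at 0.5% final DMSO.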

SMILES | CLh ([1]; human microsomal clearance) | solubility thermodynamic ([2]; aqueous buffer, 0.05 M phosphate buffer (pH 6.5), reported as bigger than the value if more than 80% of the sample is in solution, read-out: Lysa) | EC50 [3] | CLh ([1]; human, 1 μM, pH 7.4) | solubility thermodynamic ([2]; pH 6.5, aqueous buffer)
COC(=O)C1=C(CN2CC3(F)CC2(C(=O)O)C3)NC(c2nccs2)=N[C@H]1c1ccc(F)cc1Cl [Example 40, 2-[(R)-6-(2-Chloro-4-fluoro-phenyl)-5-methoxycarbonyl-2-thiazol-2-yl-3,6-dihydro-pyrimidin-4-ylmethyl]-4-fluoro-2-aza-bicyclo[2.1.1]hexane-1-carboxylic acid] | 1.4 mL/min/kg | > 634 µg/mL | 32 nM |  | 
COC(=O)C1=C(CN2[C@@H]3COC[C@H]2CC(OCC(=O)O)C3)NC(c2nccs2)=N[C@H]1c1ccc(F)cc1Cl (stereo partly drawn) [Example 46, 2-[[(1R,5S)-9-[[(4R)-4-(2-chloro-4-fluoro-phenyl)-5-methoxycarbonyl-2-thiazol-2-yl-1,4-dihydropyrimidin-6-yl]methyl]-3-oxa-9-azabicyclo[3.3.1]nonan-7-yl]oxy]acetic acid] |  |  | 86.6 nM | 4.0 mL/min/kg | > 685 µg/mL
COC(=O)C1=C(CN2C3COCC2CN(C(=O)CO)C3)NC(c2nccs2)=N[C@H]1c1ccc(F)cc1Br [Example 53, Methyl (4R)-4-(2-bromo-4-fluoro-phenyl)-6-[[7-(2-hydroxyacetyl)-3-oxa-7,9-diazabicyclo[3.3.1]nonan-9-yl]methyl]-2-thiazol-2-yl-1,4-dihydropyrimidine-5-carboxylate] |  |  | 16.8 nM | 7.0 mL/min/kg | 163 µg/mL (≈ 274 µM)
COC(=O)C1=C(CN2[C@@H]3COC[C@H]2C[C@@H](CC(=O)O)C3)NC(c2nccs2)=N[C@H]1c1cccc(F)c1Cl [Example 55, 2-[(1R,5)-9-[[(4R)-4-(2-chloro-3-fluoro-phenyl)-5-methoxycarbonyl-2-thiazol-2-yl-1,4-dihydropyrimidin-6-yl]methyl]-3-oxa-9-azabicyclo[3.3.1]nonan-7-yl]acetic acid] |  |  | 22.3 nM | 0 mL/min/kg | 505 µg/mL (≈ 920 µM)
CCOC(=O)C1=C(CN2[C@@H]3COC[C@H]2C[C@H](CC(=O)O)C3)NC(c2nccs2)=N[C@H]1c1cccc(F)c1F [Example 75, Exo-2-[(1S,5R)-9-[[(4R)-4-(2,3-difluorophenyl)-5-ethoxycarbonyl-2-thiazol-2-yl-1,4-dihydropyrimidin-6-yl]methyl]-3-oxa-9-azabicyclo[3.3.1]nonan-7-yl]acetic acid] |  |  | 29.1 nM | 1.0 mL/min/kg | > 656 µg/mL
COC(=O)C1=C(CN2[C@@H]3COC[C@H]2C[C@H](CC(=O)O)C3)NC(c2nccs2)=N[C@H]1c1ccccc1Br [Example 76, Exo-2-[(1S,5R)-9-[[(4R)-4-(2-bromophenyl)-5-methoxycarbonyl-2-thiazol-2-yl-1,4-dihydropyrimidin-6-yl]methyl]-3-oxa-9-azabicyclo[3.3.1]nonan-7-yl]acetic acid] |  |  | 31 nM | 3.3 mL/min/kg | > 706 µg/mL
COC(=O)C1=C(CN2[C@@H]3COC[C@H]2CN(C(=O)C(C)(C)C(=O)O)C3)NC(c2nccs2)=N[C@H]1c1ccc(F)cc1Cl [Example 79, 3-[(1S,5R)-9-[[(4R)-4-(2-chloro-4-fluoro-phenyl)-5-methoxycarbonyl-2-thiazol-2-yl-1,4-dihydropyrimidin-6-yl]methyl]-3-oxa-7,9-diazabicyclo[3.3.1]nonan-7-yl]-2,2-dimethyl-3-oxo-propanoic acid] |  |  | 293 nM | 3.5 mL/min/kg | > 745 µg/mL
COC(=O)C1=C(CN2[C@H]3CC[C@]2(C(=O)O)COC3)NC(c2nccs2)=N[C@H]1c1ccc(F)cc1Cl [Example 81, (1S,5R)-8-[[(4R)-4-(2-chloro-4-fluoro-phenyl)-5-methoxycarbonyl-2-thiazol-2-yl-1,4-dihydropyrimidin-6-yl]methyl]-3-oxa-8-azabicyclo[3.2.1]octane-5-carboxylic acid] |  |  | 40.5 nM | 0 mL/min/kg | > 673 µg/mL
